Reference: patent US8168233B2 (Amylin Pharmaceuticals, Inc., priority 2002, dated 2012)
Blank lines part the entries; values can stand above or below the compound they belong to. Where no end group is shown, it is not given here.

Tests used:
[1] = test system: soleus muscle; details: read-out: EC50 in the soleus muscle assay; typical range of amylin preparations; […] insulin
Method: The tendons of the muscles are ligated before attachment to stainless steel clips. […] Flasks are sealed and gassed continuously with O2 and CO2 in the ratio 19:1 (v/v). After pre-incubation of muscles in this medium for 30 min at 37° C. in an oscillating water bath, the muscles strips are transferred to similar vials containing identical medium (except pyruvate) with added [U-^14C] glucose (0.5 μCi/ml) and insulin (100 μU/ml). […] At the end of the incubation period, muscles are blotted and rapidly frozen in liquid N2. The concentration of lactate in the incubation medium can be determined spectrophotometrically and [U-^14C]glucose incorporation in glycogen measured.
Male Harlan Sprague-Dawley rats of approximately 200 g mass were used in order to maintain mass of the split soleus muscle less than 40 mg. The animals were fasted for 4 hours prior to sacrifice by decapitation. The skin was stripped from the lower limb which was then pinned out on corkboard. The tendo achilles was cut just above os calcis and m. gastrocnemius reflected out from the posterior aspect of the tibia. […]
^14C-glycogen determination was performed in a 7 mL scintillation vial. […] The remaining glycogen was redissolved in 1 mL water and 4 mL scintillation fluid and counted for ^14C. […]

[2] = test system: caerulein-induced pancreatitis in ICR(CD-1) male mice; assay: Effect of amylin on caerulein-induced pancreatitis (plasma amylase); assay type: in vivo; details: amylin at levels as low as 0.01 μg injected at t=−5 min; plasma at 9 hours after first caerulein injection
Method: Male ICR mice, weighing approximately 20 g, were fasted overnight and throughout the experiment, but were allowed access to water ad libitum. […] At t=0, 0.01 μg/kg of caerulein in all but the normal group of mice. The dosing regimen for caerulein was repeated 3 times at 2 hour intervals. At t=9 hours, i.e., 9 hours after the first caerulein injection, the mice were bleed (orbital sinus) and the plasma assayed for amylase (Amylase 3 assay kit, Sigma Diagnostics Catalog #577-3, Sigma Diagnostics, St. Louis, Mo., USA).

[3] = human, in vivo; cited from earlier work
[4] = test system: rat pancreas; assay: Inhibition of CCK-8 stimulated lipase and amylase secretion in rat pancreas (pancreatic juice collection in anesthetized rats); assay type: in vivo; details: for Amylase, % from CCK-8 stimulated / Lipase, % from CCK-8 stimulated / Pancreatic flow, % from CCK-8 stimulated: decrease versus CCK-8 alone
Method: Tracheotomy and cannulation of the right femoral artery were performed and body temperature was controlled with a thermoregulator (Model 73A, YSI, Yellow Springs, Ohio, USA) that switched a heated operating table. The femoral arterial line, used for blood sampling, was perfused with heparinized saline (2 u/ml) and connected to a pressure transducer for blood pressure recording (Spectramed P23XL transducer, Model 13-4615-58 amplifier, Gould, Cleveland, Ohio, USA). Through a midline incision two polyethylene cannulae were inserted into the common bile-pancreatic duct at a point about 0.5 cm above where the duct enters the pancreas. The first cannula was inserted up toward the liver to collect bile. The other end of this cannula was placed into the duodenum through a small incision in the duodenum. Thus, bile flowed directly from the liver to the small intestine, being shunted away from the pancreas completely.
A second polyethylene cannula was inserted into the common bile-pancreatic duct near the first but in the opposite direction to collect pancreatic juice. The other end of the pancreatic duct was tied off with a suture just at the point where it enters the duodenum, forcing any pancreatic juice produced to flow through the second cannula for collection. Pancreatic juice was collected every 15 min from −30 to 90 min. […] The volume of juice was measured and aliquots taken for enzymes determination. Amylase and lipase, which are secreted in pancreatic juice in an active form, were tested using diagnostic kits (Lipase-PS assay kit, Sigma Diagnostics Catalog #805-A and Amylase 3 assay kit, Sigma Diagnostics Catalog #577-3, Sigma Diagnostics, St. Louis, Mo., USA). To perform both assays, pancreatic juice was diluted with saline in proportion 1:2000. Activity of enzymes was expressed in units per 15 min (activity in pancreatic juice collected every 15 min).

[5] = test system: pancreatic enzyme secretion; details: rat model, doses resulting in physiological plasma concentrations; cited from earlier work
[6] = Amylin activity in vivo in treated test animals (hyperlactemia followed by hyperglycemia); details: e.g., provoking marked hyperlactemia followed by hyperglycemia
[7] = Amylin 1 μg s.c. alone, no CCK-8
[8] = Amylin 10 μg s.c. alone, no CCK-8
[9] = CCK-8 1 μg and Amylin 0.1 μg s.c.
[10] = CCK-8 1 μg and Amylin 0.3 μg s.c.
[11] = CCK-8 1 μg and Amylin 1.0 μg s.c.
[12] = CCK-8 1 μg and Amylin 10.0 μg s.c.
[13] = s.c. amylin with CCK-8 1 μg, dose-dependent
[14] = ±0.09 log units, first ED50 sentence of b123
[15] = ±0.09 log units, second ED50 sentence of b123

Compound: CC[C@H](C)[C@H](NC(=O)[C@H](C)NC(=O)CNC(=O)[C@H](Cc1ccccc1)NC(=O)[C@H](CC(N)=O)NC(=O)[C@H](CC(N)=O)NC(=O)[C@H](CO)NC(=O)[C@H](CO)NC(=O)[C@H](Cc1c[nH]cn1)NC(=O)[C@@H](NC(=O)[C@H](CC(C)C)NC(=O)[C@H](Cc1ccccc1)NC(=O)[C@H](CC(N)=O)NC(=O)[C@H](C)NC(=O)[C@H](CC(C)C)NC(=O)[C@H](CCCNC(=N)N)NC(=O)[C@H](CCC(N)=O)NC(=O)[C@@H](NC(=O)[C@H](C)NC(=O)[C@@H]1CSSC[C@H](NC(=O)[C@@H](N)CCCCN)C(=O)N[C@@H](CC(N)=O)C(=O)N[C@@H]([C@@H](C)O)C(=O)N[C@@H](C)C(=O)N[C@@H]([C@@H](C)O)C(=O)N1)[C@@H](C)O)C(C)C)C(=O)N[C@@H](CC(C)C)C(=O)N[C@@H](CO)C(=O)N[C@@H](CO)C(=O)N[C@H](C(=O)N[C@@H](CC(N)=O)C(=O)N[C@H](C(=O)NCC(=O)N[C@@H](CO)C(=O)N[C@@H](CC(N)=O)C(=O)N[C@H](C(=O)N[C@@H](Cc1ccc(O)cc1)C(N)=O)[C@@H](C)O)C(C)C)[C@@H](C)O [human amylin]
EC50 [1]: 1 to 10 nM

Amylase, % from CCK-8 stimulated [4, 9]: 25.83% | Lipase, % from CCK-8 stimulated [4, 9]: 34.65% | Pancreatic flow, % from CCK-8 stimulated [4, 9]: 21.21% | Amylase, % from CCK-8 stimulated [4, 10]: 40.90% | Lipase, % from CCK-8 stimulated [4, 10]: 57.25% | Pancreatic flow, % from CCK-8 stimulated [4, 10]: 32.32% | Amylase, % from CCK-8 stimulated [4, 11]: 57.32% | Lipase, % from CCK-8 stimulated [4, 11]: 67.87% | Pancreatic flow, % from CCK-8 stimulated [4, 11]: 41.41% | Amylase, % from CCK-8 stimulated [4, 12]: 23.07% | Lipase, % from CCK-8 stimulated [4, 12]: 48.77% | Pancreatic flow, % from CCK-8 stimulated [4, 12]: 9.09% | inhibition of cholecystokinin stimulated pancreatic amylase activity (maximum) [4, 13]: up to 67.9% | inhibition of secretion of cholecystokinin stimulated pancreatic lipase (maximum) [4, 13]: up to 57.3%
Compound: Amylin: rat amylin (AR905-80) in Example II; amylin (AC128, Amylin Pharmaceuticals, Inc.) in Example I; 37 amino acid peptide hormone (KCNTATCATQRLANFLVHSSNNFGAILSSTNVGSNTY)
reduction of elevated plasma amylase produced by caerulein [2]: effectively reduce the elevated levels of plasma amylase | tolerability [3]: well tolerated | Amylase [4, 7]: 80.21 ± 35.71 U/45 min | Lipase [4, 7]: 149.51 ± 86.79 U/45 min | Pancreatic flow [4, 7]: 30 ± 6 μl/45 min | Amylase [4, 8]: 61.95 ± 24.51 U/45 min | Lipase [4, 8]: 64.67 ± 21.59 U/45 min | Pancreatic flow [4, 8]: 13 ± 4 μl/45 min | Amylase [4, 9]: 340.98 ± 40.91 U/45 min | Lipase [4, 9]: 472.82 ± 58.67 U/45 min | Pancreatic flow [4, 9]: 78 ± 8 μl/45 min | Amylase [4, 10]: 271.73 ± 48.38 U/45 min | Lipase [4, 10]: 309.30 ± 74.31 U/45 min | Pancreatic flow [4, 10]: 67 ± 6 μl/45 min | Amylase [4, 11]: 193.93 ± 34.40 U/45 min | Lipase [4, 11]: 232.41 ± 58.01 U/45 min | Pancreatic flow [4, 11]: 58 ± 12 μl/45 min | Amylase [4, 12]: 353.68 ± 78.85 U/45 min | Lipase [4, 12]: 370.65 ± 85.67 U/45 min | Pancreatic flow [4, 12]: 90 ± 13 μl/45 min | ED50 for suppression of pancreatic amylase activity [4, 14]: 129 pmol/kg | ED50 for suppression of pancreatic lipase activity [4, 14]: 129 pmol/kg | ED50 for suppression of CCK-8 stimulated pancreatic amylase activity [4, 15]: 123 pmol/kg | ED50 for suppression of CCK-8 stimulated pancreatic lipase activity [4, 15]: 123 pmol/kg | effect on basal pancreatic enzyme secretion [5]: no effect

Compound: ^28Pro-h-amylin (KCNTATCATQRLANFLVHSSNNFGAILPSTNVGSNTY)
amylin activity in vivo [6]: show amylin activity in vivo

Compound: cholecystokinin octapeptide [CCK-8, reference compound]
Amylase ([4]; CCK-8 1 μg s.c. alone): 459.76 ± 52.49 U/45 min | Lipase ([4]; CCK-8 1 μg s.c. alone): 723.56 ± 100.56 U/45 min | Pancreatic flow ([4]; CCK-8 1 μg s.c. alone): 99 ± 13 μl/45 min

Compound: des-^1Lys-h-amylin (CNTATCATQRLANFLVHSSNNFGAILSSTNVGSNTY; ends and bridges not checked; cysteine pairing not given here; UniProt P10997 35-70, looked up, fragment)
amylin activity in vivo [6]: show amylin activity in vivo

Compound: des-^1Lys^18Arg^25,28Pro-h-amylin
amylin activity in vivo [6]: show amylin activity in vivo
